Measured values: patent publication US9499550B2 (BRISTOL-MYERS SQUIBB COMPANY, priority 2012, dated 2016)
pEC50: −log10 of the molar value. Like-named read-outs stand apart in the source and are kept apart here.

Legend:
[1] = system: HCV genotype 1a (H77 strain) replicon in HUH-7 cells; assay: HCV replicon luciferase reporter assay, genotype 1a; assay type: cell-based; conditions: Hepatitis C virus, Huh-7, 72 h, 3 days incubation
Summary of the method: (§1)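 Replicon inhibition for both genotypes was measured as Renilla luciferase signal (EnduRen, 7.5 μM final, 2 h) after 3-day, 37° C exposure of replicon-bearing HUH-7 cells in 4% FCS DMEM, 0.5% DMSO. The 1b construct carries S1179I; the 1a H77 construct carries P1496L and S2204I. Twenty-point, 3-fold dilutions were fitted four-parametrically for EC50, and CC50 was taken from multiplexed Cell Titer-Blue.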

[2] = system: HCV genotype 1b (Con1) replicon in HUH-7 cells; assay: HCV replicon luciferase reporter assay, genotype 1b; assay type: cell-based; conditions: Hepatitis C virus, Huh-7, 72 h, 3 days incubation
Summary of the method: as §1

[3] = HCV genotype 1a replicon luciferase, read-out: LE_1a (EC50, range)
[4] = HCV genotype 1b replicon luciferase, read-out: LE_1b (EC50, range)
[5] = HCV genotype 1a replicon luciferase assay, range class, read-out: LE_1a (EC50, range)
[6] = HCV genotype 1b replicon luciferase assay, range class, read-out: LE_1b (EC50, range)

Compound `CC[C@@H]1C[C@H](C)CC/C=C\[C@@H]2C[C@@]2(C(=O)NS(=O)(=O)C2(C)CC2)NC(=O)[C@@H]2C[C@@H](Oc3ncc(OC)c4ccc(F)cc34)CN2C(=O)[C@H]1NC(=O)C1(C(F)(F)F)CC1` [Compound 4323, (2R,6S,7R,9R,13aS,14aR,16aS,Z)-7-ethyl-2-((7-fluoro-4-methoxyisoquinolin-1-yl)oxy)-9-methyl-N-((1-methylcyclopropyl)sulfonyl)-5,16-dioxo-6-(1-(trifluoromethyl)cyclopropanecarboxamido)-1,2,3,5,6,7,8,9,10,11,13a,14,14a,15,16,16a-hexadecahydrocyclopropa[e]pyrrolo[1,2-a][1,4]diazacyclopentadecine-14a-carboxamide] has a pEC50 [1, 3] of 8.30 to 9.00 and a pEC50 [2, 4] of 9.00 to 9.29.

In the case of `COc1ccc2c(O[C@@H]3C[C@H]4C(=O)N[C@]5(C(=O)NS(=O)(=O)C6(CF)CC6)C[C@H]5/C=C\CC[C@@H](C)C[C@@H](C)[C@H](NC(=O)OC(C)(C)C(F)(F)F)C(=O)N4C3)nc(-c3ccc(OC(C)C)cc3)cc2c1` [Compound 4128], the pEC50 ([1]; GETYPE1A, HCV genotype 1a replicon luciferase, read-out: LE_1a (EC50, range)) was > 8.26 and the pEC50 ([2]; GETYPE1B, HCV genotype 1b replicon luciferase, read-out: LE_1b (EC50, range)) was > 8.26.

`COc1ccc2c(O[C@@H]3C[C@H]4C(=O)N[C@]5(C(=O)NS(=O)(=O)C6(C)CC6)C[C@H]5/C=C\CC[C@H](C)C[C@@H](C)[C@H](NC(=O)OCC5(C)CC5)C(=O)N4C3)nc(N3CCOCC3)cc2c1` [Compound 3090, (1-methylcyclopropyl)methyl ((2R,6S,7R,9S,13aS,14aR,16aS,Z)-2-((6-methoxy-3-morpholinoisoquinolin-1-yl)oxy)-7,9-dimethyl-14a-(((1-methylcyclopropyl)sulfonyl)carbamoyl)-5,16-dioxo-1,2,3,5,6,7,8,9,10,11,13a,14,14a,15,16,16a-hexadecahydrocyclopropa[e]pyrrolo[1,2-a][1,4]diazacyclopentadecin-6-yl)carbamate] was tested, and the pEC50 [1, 5] was 6.99 to 8.32 and the pEC50 [2, 6] was > 8.26.

With `C[C@@H]1CC/C=C\[C@@H]2C[C@@]2(C(=O)NS(=O)(=O)C2CC2)NC(=O)[C@@H]2C[C@@H](Oc3nccc4c5c(ccc34)N(C)CCO5)CN2C(=O)[C@@H](NC(=O)O[C@@H]2C[C@@H]3C[C@@H]3C2)[C@H](C)C1` [Compound 5292, (1R,3r,5S)-bicyclo[3.1.0]hexan-3-yl((2R,6S,7R,9R,13aS,14aR,16aS,Z)-14a-((cyclopropylsulfonyl)carbamoyl)-7,9-dimethyl-2-((4-methyl-3,4-dihydro-2H-[1,4]oxazino[2,3-f]isoquinolin-7-yl)oxy)-5,16-dioxo-1,2,3,5,6,7,8,9,10,11,13a,14,14a,15,16,16a-hexadecahydrocyclopropa[e]pyrrolo[1,2-a][1,4]diazacyclopentadecin-6-yl)carbamate] the pEC50 [1, 3] was > 8.26 and the pEC50 [2, 4] was > 8.26.

For `[2H]C([2H])([2H])C(OC(=O)N[C@@H]1C(=O)N2C[C@H](Oc3nccc4cc(OC(C)C)ccc34)C[C@H]2C(=O)N[C@]2(C(=O)NS(=O)(=O)C3(C)CC3)C[C@H]2/C=C\CC[C@@H](C)C[C@H]1C)(C([2H])([2H])[2H])C([2H])([2H])[2H]` [Compound 5167, 1,1,1,3,3,3-hexadeutero-2-(trideuteromethyl)propan-2-yl((2R,6S,7R,9R,13aS,14aR,16aS,Z)-2-((6-isopropoxyisoquinolin-1-yl)oxy)-7,9-dimethyl-14a-(((1-methylcyclopropyl)sulfonyl)carbamoyl)-5,16-dioxo-1,2,3,5,6,7,8,9,10,11,13a,14,14a,15,16,16a-hexadecahydrocyclopropa[e]pyrrolo[1,2-a][1,4]diazacyclopentadecin-6-yl)carbamate], the pEC50 [1, 3] was > 8.26 and the pEC50 [2, 4] was > 8.26.

With `COc1ccc2ncc(O[C@@H]3C[C@H]4C(=O)N[C@]5(C(=O)NS(=O)(=O)C6(CF)CC6)C[C@H]5/C=C\CC[C@@H](C)C[C@@H](C)[C@H](NCC(F)F)C(=O)N4C3)nc2c1` [Compound 4170] the pEC50 [1, 3] was < 7.06 and the pEC50 [2, 4] was 6.99 to 8.32.

In the case of `COc1ccc2c(O[C@@H]3C[C@H]4C(=O)N[C@]5(C(=O)NS(=O)(=O)C6(C)CC6)C[C@H]5/C=C\CC[C@@H](C)C[C@@H](C)[C@H](NC(=O)OC(C)(C)C)C(=O)N4C3)nc(-c3ccc(F)cc3)cc2c1` [Compound 3082, tert-butyl ((2R,6S,7R,9R,13aS,14aR,16aS,Z)-2-((3-(4-fluorophenyl)-6-methoxyisoquinolin-1-yl)oxy)-7,9-dimethyl-14a-(((1-methylcyclopropyl)sulfonyl)carbamoyl)-5,16-dioxo-1,2,3,5,6,7,8,9,10,11,13a,14,14a,15,16,16a-hexadecahydrocyclopropa[e]pyrrolo[1,2-a][1,4]diazacyclopentadecin-6-yl)carbamate], the pEC50 [1, 5] was > 8.26 and the pEC50 [2, 6] was > 8.26.

In the case of `C[C@@H]1CC/C=C\[C@@H]2C[C@@]2(C(=O)NS(=O)(=O)C2(C)CC2)NC(=O)[C@@H]2C[C@@H](Oc3nc(OCC(F)F)cc4c(Cl)cccc34)CN2C(=O)[C@@H](NC(=O)OC(C)(C)C(F)(F)F)[C@H](C)C1` [Compound 1098, 1,1,1-trifluoro-2-methylpropan-2-yl((2R,6S,7R,9R,13aS,14aR,16aS,Z)-2-((5-chloro-3-(2,2-difluoroethoxyl)isoquinolin-1-yl)oxy)-7,9-dimethyl-14a-(((1-methylcyclopropyl)sulfonyl)carbamoyl)-5,16-dioxo-1,2,3,5,6,7,8,9,10,11,13a,14,14a,15,16,16a-hexadecahydrocyclopropa[e]pyrrolo[1,2-a][1,4]diazacyclopentadecin-6-yl)carbamate], the pEC50 [1, 5] was > 8.26 and the pEC50 [2, 6] was > 8.26.

With `C[C@@H]1CC/C=C\[C@@H]2C[C@@]2(C(=O)NS(=O)(=O)C2CC2)NC(=O)[C@@H]2C[C@@H](Oc3nccc4c5c(ccc34)OC(F)(F)O5)CN2C(=O)[C@@H](NC(=O)OC(C)(C)C(F)(F)F)[C@H](C)C1` [Compound 5268, 1,1,1-trifluoro-2-methylpropan-2-yl((2R,6S,7R,9R,13aS,14aR,16aS,Z)-14a-((cyclopropylsulfonyl)carbamoyl)-2-((2,2-difluoro-[1,3]dioxolo[4,5-f]isoquinolin-6-yl)oxy)-7,9-dimethyl-5,16-dioxo-1,2,3,5,6,7,8,9,10,11,13a,14,14a,15,16,16a-hexadecahydrocyclopropa[e]pyrrolo[1,2-a][1,4]diazacyclopentadecin-6-yl)carbamate] the pEC50 [1, 3] was > 8.26 and the pEC50 [2, 4] was > 8.26.

With `CCOc1cnc(O[C@@H]2C[C@H]3C(=O)N[C@]4(C(=O)NS(=O)(=O)C5(C)CC5)C[C@H]4/C=C\CC[C@@H](C)C[C@@H](C)[C@H](NC(=O)Oc4ccc(F)cc4F)C(=O)N3C2)c2ccccc12` [Compound 4138, 2,4-difluorophenyl (2R,6S,7R,9R,13aS,14aR,16aS,Z)-2-(4-ethoxyisoquinolin-1-yloxy)-7,9-dimethyl-14a-(1-methylcyclopropylsulfonylcarbamoyl)-5,16-dioxo-1,2,3,5,6,7,8,9,10,11,13a,14,14a,15,16,16a-hexadecahydrocyclopropa[e]pyrrolo[1,2-a][1,4]diazacyclopentadecin-6-ylcarbamate] the pEC50 [1, 3] was 6.99 to 8.32 and the pEC50 [2, 4] was 6.99 to 8.32.

For `CC(C)n1nc(O[C@@H]2C[C@H]3C(=O)N[C@]4(C(=O)NS(=O)(=O)C5CC5)C[C@H]4/C=C\CC[C@H](C)C[C@@H](C)[C@H](NC(=O)OC(C)(C)C)C(=O)N3C2)c2ccccc2c1=O` [Compound 1001, tert-butyl ((2R,6S,7R,9S,13aS,14aR,16aS,Z)-14a-((cyclopropylsulfonyl)carbamoyl)-2-((3-isopropyl-4-oxo-3,4-dihydrophthalazin-1-yl)oxy)-7,9-dimethyl-5,16-dioxo-1,2,3,5,6,7,8,9,10,11,13a,14,14a,15,16,16a-hexadecahydrocyclopropa[e]pyrrolo[1,2-a][1,4]diazacyclopentadecin-6-yl)carbamate], the pEC50 [1, 5] was < 7.06, the pEC50 ([1]; HCV genotype 1a replicon luciferase assay, read-out: LE_1a (EC50)) was ≤ 6.00 and the pEC50 [2, 6] was < 7.06. For the same compound, the pEC50 ([2]; HCV genotype 1b replicon luciferase assay, read-out: LE_1b (EC50)) was 6.35.

`CC[C@@H]1C[C@@H](C)CC/C=C\[C@@H]2C[C@@]2(C(=O)NS(=O)(=O)C2(C)CC2)NC(=O)[C@@H]2C[C@@H](Oc3nnc(OC)c4ccccc34)CN2C(=O)[C@H]1NC(=O)NC(C)(C)C` [Compound 5023, (2R,6S,7R,9S,13aS,14aR,16aS,Z)-6-(3-(tert-butyl)ureido)-7-ethyl-2-((4-methoxyphthalazin-1-yl)oxy)-9-methyl-N-((1-methylcyclopropyl)sulfonyl)-5,16-dioxo-1,2,3,5,6,7,8,9,10,11,13a,14,14a,15,16,16a-hexadecahydrocyclopropa[e]pyrrolo[1,2-a][1,4]diazacyclopentadecine-14a-carboxamide] was tested, and the pEC50 ([1]; HCV genotype 1a replicon luciferase, read-out: LE_1a (EC50)) was 7.80, the pEC50 [1, 3] was 6.99 to 8.32 and the pEC50 ([2]; HCV genotype 1b replicon luciferase, read-out: LE_1b (EC50)) was 7.61. For the same compound, the pEC50 [2, 4] was 6.99 to 8.32.
